This is an account of results in publication PMC10893103, “Cyclodextrin-Enabled Enantioselective Complexation Study of Cathinone Analogs” (Molecules, 2024).

Molecules are shown by their SMILES.

This series in a line: Affinity capillary electrophoresis (ACE), pH 7.4. To be noted: 30 mM phosphate buffer pH 7.4, 25 °C, 15 kV. The text has this:
To assess the CD complex formation capability of the five cathinone derivatives, we devised a screening ACE method tailored to closely mimic physiological conditions. In a preliminary study, the ACE conditions were optimized regarding the type, pH, and concentration of the background electrolyte, the applied voltage, and the injection parameters. […] In order to avoid high Joule heat generation, sufficiently low voltage should be used; thus, after registering the Ohm plot (I-U plot), it was set to 15 kV. Throughout our ACE measurements, corrections for viscosity and ionic strength were systematically implemented to ensure precise determination of complex stability constants.
The CE experiments were performed on a HP ^3DCE and on an Agilent 7100 instrument (Agilent Technologies, Waldbronn, Germany) equipped with a photodiode array detector and the Chemstation software for data handling. Untreated fused silica capillaries (50 µm id, 48.5 cm total, 40 cm effective length) were purchased from Agilent. Conditioning of new capillary was conducted by flushing with 1 M NaOH followed by 0.1 M NaOH and water for 30 min each. Prior to all runs, the capillary was preconditioned by rinsing with BGE (2 min). The temperature of the capillary was set to 25 °C. UV detection was performed at 215 nm, and 15–25 kV voltage was applied. Samples were injected hydrodynamically (150 mbar·sec, optimized in the 50–500 mbar·sec range). The CE-pH measurements were carried out applying 25 kV voltage and 200 mbar·sec injection.
The background electrolyte of the CE-pH measurements contained 25 mM Na2HPO4 and 25 mM Na2B4O7, and the appropriate pH was adjusted with hydrochloric acid. During the ACE measurements, 30 mM phosphate buffer pH 7.4 (30 mM Na2HPO4—NaOH) was used. The running buffer was 20 mM acetic acid adjusting with 1 M Tris the pH to 4.5 during the chiral screening experiments. The BGEs contained CDs at various concentrations (0.25–20 mM) in the ACE experiments and 1-5-10 mM in the chiral method optimization experiments.
Stock solutions of each cathinone analog (mephedrone, flephedrone, 4-MEC, butylone, and MDPV) were prepared separately in methanol (1 mg/ml), and appropriate dilutions with water were used to prepare sample solutions for the CE-pH titration and for the ACE studies applying DMSO as EOF marker, while their mixture was used during the chiral separation studies.
The simplest way to determine the mobility is from the migration times (tmax) read from the electropherograms from which the apparent mobility could be calculated, but more accurate mobility values could be obtained by the determination with the Haarhoff–van der Linde (HVL) function based on Equation (2). (2) HVLδ(t;a0,a1,a2,a3δ)=a0/a2a3δ2πexp[−1/2(t−a1/a2)^2]/1/exp(a3δ)−1+1/2[1+erf(t−a1/2a2)] where a0 is the area of the HVL function, a1 is the position of the Gaussian component, a2 is the standard deviation of the Gaussian component, and a3δ is the peak shape distortion. The application of the HVL function is necessary in the case of accurate ACE measurements because, in several cases, the peaks are distorted due to the complex formation, which makes reading the migration times and calculating the mobility more difficult and imprecise.
The most popular technique for quantifying the analyte–ligand interaction with CE is mobility shift ACE.
As to `CO[C@H]1[C@H]2O[C@H]3[C@H](OS(=O)(=O)O)[C@@H](OC)[C@@H](O[C@H]4[C@H](OS(=O)(=O)O)[C@@H](OC)[C@@H](O[C@H]5[C@H](OS(=O)(=O)O)[C@@H](OC)[C@@H](O[C@H]6[C@H](OS(=O)(=O)O)[C@@H](OC)[C@@H](O[C@H]7[C@H](OS(=O)(=O)O)[C@@H](OC)[C@@H](O[C@H]8[C@H](OS(=O)(=O)O)[C@@H](OC)[C@@H](O[C@@H]([C@@H]1OS(=O)(=O)O)[C@@H](COS(=O)(=O)O)O2)O[C@@H]8COS(=O)(=O)O)O[C@@H]7COS(=O)(=O)O)O[C@@H]6COS(=O)(=O)O)O[C@@H]5COS(=O)(=O)O)O[C@@H]4COS(=O)(=O)O)O[C@@H]3COS(=O)(=O)O` [HMDiSu-β-CD, heptakis-(2-O-methyl, 3,6-O-disulfo)-β-CD], the “4-MEC–CD complex stability constant, Kstab/Kstab1 (unresolved or first migrating enantiomer)” value is 260 ± 10 M⁻¹; the “Butylone–CD complex stability constant, Kstab/Kstab1 (unresolved or first migrating enantiomer)” value was determined as 265 ± 20 M⁻¹; the “MDPV–CD complex stability constant, Kstab/Kstab1 (unresolved or first migrating enantiomer)” value is 165 ± 25 M⁻¹.

In the case of `OCCCNC[C@H]1O[C@@H]2O[C@H]3[C@H](O)[C@@H](O)[C@@H](O[C@H]4[C@H](O)[C@@H](O)[C@@H](O[C@H]5[C@H](O)[C@@H](O)[C@@H](O[C@H]6[C@H](O)[C@@H](O)[C@@H](O[C@H]7[C@H](O)[C@@H](O)[C@@H](O[C@H]8[C@H](O)[C@@H](O)[C@@H](O[C@H]1[C@H](O)[C@H]2O)O[C@@H]8CO)O[C@@H]7CO)O[C@@H]6CO)O[C@@H]5CO)O[C@@H]4CO)O[C@@H]3CO` [HPA-β-CD, mono-6^A-(3-hydroxy)propylamino-β-CD], the “4-MEC–CD complex stability constant, Kstab/Kstab1 (unresolved or first migrating enantiomer)” value was 145 ± 15 M⁻¹; the “Butylone–CD complex stability constant, Kstab/Kstab1 (unresolved or first migrating enantiomer)” value turned out to be 85 ± 15 M⁻¹; the “Flephedrone–CD complex stability constant, Kstab/Kstab1 (unresolved or first migrating enantiomer)” value was determined as 500 ± 105 M⁻¹; the “MDPV–CD complex stability constant, Kstab2 (second migrating enantiomer)” value worked out at 570 ± 80 M⁻¹. Further, the “MDPV–CD complex stability constant, Kstab/Kstab1 (unresolved or first migrating enantiomer)” value is 840 ± 65 M⁻¹ and the “Mephedrone–CD complex stability constant, Kstab/Kstab1 (unresolved or first migrating enantiomer)” value turned out to be 140 ± 35 M⁻¹.

Consider `CO[C@@H]1[C@@H](OC)[C@H]2O[C@H]3[C@H](OC)[C@@H](OC)[C@@H](O[C@H]4[C@H](OC)[C@@H](OC)[C@@H](O[C@H]5[C@H](OC)[C@@H](OC)[C@@H](O[C@H]6[C@H](OC)[C@@H](OC)[C@@H](O[C@H]7[C@H](OC)[C@@H](OC)[C@@H](O[C@@H]1[C@@H](COS(=O)(=O)O)O2)O[C@@H]7COS(=O)(=O)O)O[C@@H]6COS(=O)(=O)O)O[C@@H]5COS(=O)(=O)O)O[C@@H]4COS(=O)(=O)O)O[C@@H]3COS(=O)(=O)O` [HxDMS-α-CD, hexakis-(2,3-O-dimethyl, 6-O-sulfo)-α-CD], for which the “4-MEC–CD complex stability constant, Kstab/Kstab1 (unresolved or first migrating enantiomer)” value is 55 ± 15 M⁻¹; the “Butylone–CD complex stability constant, Kstab/Kstab1 (unresolved or first migrating enantiomer)” value amounted to 550 ± 95 M⁻¹; the “Flephedrone–CD complex stability constant, Kstab/Kstab1 (unresolved or first migrating enantiomer)” value was 105 ± 12 M⁻¹; the “MDPV–CD complex stability constant, Kstab/Kstab1 (unresolved or first migrating enantiomer)” value came to 220 ± 30 M⁻¹. The “Mephedrone–CD complex stability constant, Kstab/Kstab1 (unresolved or first migrating enantiomer)” value is 270 ± 110 M⁻¹.

As to `NC[C@H]1O[C@@H]2O[C@H]3[C@H](O)[C@@H](O)[C@@H](O[C@H]4[C@H](O)[C@@H](O)[C@@H](O[C@H]5[C@H](O)[C@@H](O)[C@@H](O[C@H]6[C@H](O)[C@@H](O)[C@@H](O[C@H]7[C@H](O)[C@@H](O)[C@@H](O[C@H]8[C@H](O)[C@@H](O)[C@@H](O[C@H]1[C@H](O)[C@H]2O)O[C@@H]8CO)O[C@@H]7CO)O[C@@H]6CO)O[C@@H]5CO)O[C@@H]4CO)O[C@@H]3CO` [MA-β-CD, mono-(6-N-amino-6-deoxy)-β-CD], the “4-MEC–CD complex stability constant, Kstab/Kstab1 (unresolved or first migrating enantiomer)” value worked out at 180 ± 40 M⁻¹; the “Butylone–CD complex stability constant, Kstab2 (second migrating enantiomer)” value was 340 ± 50 M⁻¹; the “Butylone–CD complex stability constant, Kstab/Kstab1 (unresolved or first migrating enantiomer)” value is 140 ± 25 M⁻¹; the “Flephedrone–CD complex stability constant, Kstab/Kstab1 (unresolved or first migrating enantiomer)” value amounted to 425 ± 80 M⁻¹. Moreover, the “MDPV–CD complex stability constant, Kstab2 (second migrating enantiomer)” value came to 200 ± 30 M⁻¹; the “MDPV–CD complex stability constant, Kstab/Kstab1 (unresolved or first migrating enantiomer)” value was determined as 350 ± 60 M⁻¹; the “Mephedrone–CD complex stability constant, Kstab/Kstab1 (unresolved or first migrating enantiomer)” value turned out to be 225 ± 35 M⁻¹.

For the compound `C[N+]1(C[C@H]2O[C@@H]3O[C@H]4[C@H](O)[C@@H](O)[C@@H](O[C@H]5[C@H](O)[C@@H](O)[C@@H](O[C@H]6[C@H](O)[C@@H](O)[C@@H](O[C@H]7[C@H](O)[C@@H](O)[C@@H](O[C@H]8[C@H](O)[C@@H](O)[C@@H](O[C@H]9[C@H](O)[C@@H](O)[C@@H](O[C@H]2[C@H](O)[C@H]3O)O[C@@H]9CO)O[C@@H]8CO)O[C@@H]7CO)O[C@@H]6CO)O[C@@H]5CO)O[C@@H]4CO)CCCCC1` [MePIP-β-CD, mono-6^A-(N-methyl-piperidine)-β-CD], the “4-MEC–CD complex stability constant, Kstab/Kstab1 (unresolved or first migrating enantiomer)” value is 50 ± 5 M⁻¹; the “Butylone–CD complex stability constant, Kstab/Kstab1 (unresolved or first migrating enantiomer)” value is 40 ± 3 M⁻¹; the “Flephedrone–CD complex stability constant, Kstab/Kstab1 (unresolved or first migrating enantiomer)” value is 40 ± 3 M⁻¹; the “MDPV–CD complex stability constant, Kstab/Kstab1 (unresolved or first migrating enantiomer)” value worked out at 85 ± 5 M⁻¹. For the same compound, the “Mephedrone–CD complex stability constant, Kstab/Kstab1 (unresolved or first migrating enantiomer)” value came out at 45 ± 5 M⁻¹.

`CO[C@@H]1[C@@H](OC)[C@H]2O[C@H]3[C@H](OC)[C@@H](OC)[C@@H](O[C@H]4[C@H](OC)[C@@H](OC)[C@@H](O[C@H]5[C@H](OC)[C@@H](OC)[C@@H](O[C@H]6[C@H](OC)[C@@H](OC)[C@@H](O[C@H]7[C@H](OC)[C@@H](OC)[C@@H](O[C@H]8[C@H](OC)[C@@H](OC)[C@@H](O[C@H]9[C@H](OC)[C@@H](OC)[C@@H](O[C@@H]1[C@@H](COS(=O)(=O)O)O2)O[C@@H]9COS(=O)(=O)O)O[C@@H]8COS(=O)(=O)O)O[C@@H]7COS(=O)(=O)O)O[C@@H]6COS(=O)(=O)O)O[C@@H]5COS(=O)(=O)O)O[C@@H]4COS(=O)(=O)O)O[C@@H]3COS(=O)(=O)O` [ODMS-γ-CD, octakis-(2,3-O-dimethyl, 6-O-sulfo)-γ-CD]: the “4-MEC–CD complex stability constant, Kstab2 (second migrating enantiomer)” value was 125 ± 20 M⁻¹; the “4-MEC–CD complex stability constant, Kstab/Kstab1 (unresolved or first migrating enantiomer)” value is 110 ± 15 M⁻¹; the “Butylone–CD complex stability constant, Kstab2 (second migrating enantiomer)” value was 165 ± 25 M⁻¹; the “Butylone–CD complex stability constant, Kstab/Kstab1 (unresolved or first migrating enantiomer)” value was determined as 145 ± 15 M⁻¹. Moreover, the “Flephedrone–CD complex stability constant, Kstab2 (second migrating enantiomer)” value came out at 70 ± 10 M⁻¹; the “Flephedrone–CD complex stability constant, Kstab/Kstab1 (unresolved or first migrating enantiomer)” value was 90 ± 20 M⁻¹; the “MDPV–CD complex stability constant, Kstab2 (second migrating enantiomer)” value amounted to 110 ± 45 M⁻¹; the “MDPV–CD complex stability constant, Kstab/Kstab1 (unresolved or first migrating enantiomer)” value came out at 105 ± 7 M⁻¹. Further, the “Mephedrone–CD complex stability constant, Kstab2 (second migrating enantiomer)” value came to 140 ± 20 M⁻¹ and the “Mephedrone–CD complex stability constant, Kstab/Kstab1 (unresolved or first migrating enantiomer)” value was 200 ± 35 M⁻¹.

With `OC[C@H]1O[C@@H]2O[C@H]3[C@H](O)[C@@H](O)[C@@H](O[C@H]4[C@H](O)[C@@H](O)[C@@H](O[C@H]5[C@H](O)[C@@H](O)[C@@H](O[C@H]6[C@H](O)[C@@H](O)[C@@H](O[C@H]7[C@H](O)[C@@H](O)[C@@H](O[C@H]8[C@H](O)[C@@H](O)[C@@H](O[C@H]1[C@H](O)[C@H]2O)O[C@@H]8CO)O[C@@H]7CO)O[C@@H]6CO)O[C@@H]5CN1CCCCC1)O[C@@H]4CO)O[C@@H]3CO` [PIP-β-CD, 6-monodeoxy-6-piperidine-β-CD], the “4-MEC–CD complex stability constant, Kstab/Kstab1 (unresolved or first migrating enantiomer)” value was under 10 M⁻¹; the “Butylone–CD complex stability constant, Kstab/Kstab1 (unresolved or first migrating enantiomer)” value was under 10 M⁻¹; the “Flephedrone–CD complex stability constant, Kstab/Kstab1 (unresolved or first migrating enantiomer)” value is under 10 M⁻¹; the “MDPV–CD complex stability constant, Kstab/Kstab1 (unresolved or first migrating enantiomer)” value was under 10 M⁻¹. The “Mephedrone–CD complex stability constant, Kstab/Kstab1 (unresolved or first migrating enantiomer)” value is under 10 M⁻¹.
